# Legend:
# [1] = test system: type-I interferon signaling pathway; experiment: SEAP reporter gene assay in HEK-Blue IFNα/β cells stimulated with IFN-α2a; type: cell-based; conditions: Homo sapiens
# Phospho-STAT1 (Tyr701) [2] = experiment: Western blot of STAT1 phosphorylation in HEK-Blue IFNα/β cells after IFN-α2a; type: cell-based, human; conditions: niclosamide 10 μmol/L (Fig. 5B, Fig. S2)
# Phospho-STAT1 (Tyr701) [3] = experiment: Western blot of STAT1 phosphorylation in SH-SY5Y cells after IFN-α2a; type: cell-based, human; conditions: niclosamide 10 μmol/L (Fig. 6B)
# IRF7 mRNA = IRF7 mRNA quantitative PCR in SH-SY5Y cells; type: cell-based, human; conditions: positive control niclosamide, IFN-α2a 1 h
# STAT3 phosphorylation = conditions: concentrations below 10 μmol/L; cited from earlier work
structure (smiles),measurement,setting,value
"O=C(Nc1ccc([N+](=O)[O-])cc1Cl)c1cc(Cl)ccc1O [niclosamide, Niclosamide]",IC50,[1],370 nM
same,effect on STAT1 phosphorylation,Phospho-STAT1 (Tyr701) [2],also inhibited STAT1 phosphorylation
same,effect on STAT1 phosphorylation,Phospho-STAT1 (Tyr701) [3],also inhibited STAT1 phosphorylation
same,IRF7 level after compound plus IFN-α2a,IRF7 mRNA,0.84±0.07 folds
same,effect on STAT phosphorylation,STAT3 phosphorylation,only inhibit STAT3 phosphorylation
